Patent publication US20130231458A1, “POLYPEPTIDE FOR PREVENTING AND TREATING CELL HYPERPLASIA” (priority 2011, published 2013)

Experiments:
lung cancer cells = assay: Xenograft model of lung cancer in nude mice, tumor volume; format: in vivo, nude mice (NU/NU)
Description: The polypeptide of the present invention is preventively injected into the rear parts of the necks of four nude mice (nude mice—NU/NU) for a week (5 times per week at a dose of 50 mg/Kg). Next, 1×10^6 lung cancer cells are injected into the hypodermic tissue of the right side of the abdomen of each nude mouse on Day 1. The abovementioned four nude mice function as the medicine test group. Next, the polypeptide is delivered to each nude mouse of the medicine test group at a dose of 50 mg/Kg 5 times per week from Day 1 to Day 43. Meanwhile, the weight and cancer size of each nude mouse of the medicine test group is recorded. […] Normal saline having a pH of 7.2-7.4 is subcutaneously injected into the four nude mice of the negative control group for a week (5 times per week). Next, 1×10^6 lung cancer cells are injected into the hypodermic tissue of the right side of the abdomen of each nude mouse of the negative control group on Day 1. Next, normal saline is delivered to each nude mouse of the negative control group 5 times per week from Day 1 to Day 43. Meanwhile, the weight and cancer size of each nude mouse of the negative control group is recorded. […] 1×10^6 lung cancer cells are injected into the hypodermic tissue of the right side of the abdomen of each nude mouse of the positive control group on Day 1. Next, a small-molecule anti-cancer drug Doxorubicin is intravenously injected into a region near the abdomen of each nude mouse of the positive control group once per week at a dose of 5 mg/Kg from Day 1 to Day 43 (refer to F Pastorino et. al., Clin. Cancer Res. 14(22): 7320-7329, 2008). Meanwhile, the weight and cancer size of each nude mouse of the positive control group is recorded. Different from the abovementioned two groups, medicine is not applied to the positive control group before Day 1. […] The mice of the three groups are dissected for examining and recording the weight of the tumor tissue on Day 43.

[1] = Weights, motility and side effects of nude mice in the xenograft experiment; format: in vivo, nude mice (NU/NU)
Description: The polypeptide of the present invention is preventively injected into the rear parts of the necks of four nude mice (nude mice—NU/NU) for a week (5 times per week at a dose of 50 mg/Kg). Next, 1×10^6 lung cancer cells are injected into the hypodermic tissue of the right side of the abdomen of each nude mouse on Day 1. The abovementioned four nude mice function as the medicine test group. Next, the polypeptide is delivered to each nude mouse of the medicine test group at a dose of 50 mg/Kg 5 times per week from Day 1 to Day 43. Meanwhile, the weight and cancer size of each nude mouse of the medicine test group is recorded. The negative control group also has four nude mice. Normal saline having a pH of 7.2-7.4 is subcutaneously injected into the four nude mice of the negative control group for a week (5 times per week). Next, 1×10^6 lung cancer cells are injected into the hypodermic tissue of the right side of the abdomen of each nude mouse of the negative control group on Day 1. Next, normal saline is delivered to each nude mouse of the negative control group 5 times per week from Day 1 to Day 43. Meanwhile, the weight and cancer size of each nude mouse of the negative control group is recorded. The positive control group also has four nude mice. 1×10^6 lung cancer cells are injected into the hypodermic tissue of the right side of the abdomen of each nude mouse of the positive control group on Day 1. Next, a small-molecule anti-cancer drug Doxorubicin is intravenously injected into a region near the abdomen of each nude mouse of the positive control group once per week at a dose of 5 mg/Kg from Day 1 to Day 43 (refer to F Pastorino et. al., Clin. Cancer Res. 14(22): 7320-7329, 2008). Meanwhile, the weight and cancer size of each nude mouse of the positive control group is recorded. Different from the abovementioned two groups, medicine is not applied to the positive control group before Day 1. The medicine test group, negative control group and positive group are observed until Day 43. The mice of the three groups are dissected for examining and recording the weight of the tumor tissue on Day 43.

erythrocytes = settings: very low concentration (lower than 5 μM); cited from earlier work

With `COc1cccc2c1C(=O)c1c(O)c3c(c(O)c1C2=O)C[C@@](O)(C(=O)CO)C[C@@H]3O[C@H]1C[C@H](N)[C@H](O)[C@H](C)O1` [Dox, Doxorubicin] the “Tumor Volumes of Nude Mice” value (lung cancer cells; D22, polypeptide 50 mg/Kg s.c. 5 times per week (plus one week before D1), Dox 5 mg/Kg i.v. once per week) was 57.8 mm^3, the “Tumor Volumes of Nude Mice” value (lung cancer cells; D29, same dosing) was 373.8 mm^3 and the “Tumor Volumes of Nude Mice” value (lung cancer cells; D33, same dosing) was 553.5 mm^3. The “Tumor Volumes of Nude Mice” value (lung cancer cells; D36, same dosing) was 632.6 mm^3, the “Tumor Volumes of Nude Mice” value (lung cancer cells; D40, same dosing) was 884.5 mm^3 and the “Tumor Volumes of Nude Mice” value (lung cancer cells; D43, same dosing) was 1308.9 mm^3. For the same compound, the “ratio of the average tumor volumes of treated group and negative control group (saline)” value (lung cancer cells; at best, Day 40) was 52.0%, the “ratio of the average tumor volumes of treated group and negative control group (saline)” value (lung cancer cells; end of the experiment (Day 43)) was 83.05% and the “Weights of Nude Mice” value ([1]; D1, polypeptide 50 mg/Kg s.c. 5 times per week (plus one week before D1), Dox 5 mg/Kg i.v. once per week) was 25.6 gram. For the same compound, the “Weights of Nude Mice” value ([1]; D5, same dosing) was 26.5 gram, the “Weights of Nude Mice” value ([1]; D8, same dosing) was 27.8 gram and the “Weights of Nude Mice” value ([1]; D12, same dosing) was 28.2 gram. For the same compound, the “Weights of Nude Mice” value ([1]; D15, same dosing) was 28.8 gram, the “Weights of Nude Mice” value ([1]; D19, same dosing) was 30.4 gram and the “Weights of Nude Mice” value ([1]; D22, same dosing) was 30.0 gram. For the same compound, the “Weights of Nude Mice” value ([1]; D26, same dosing) was 30.4 gram, the “Weights of Nude Mice” value ([1]; D29, same dosing) was 30.0 gram and the “Weights of Nude Mice” value ([1]; D33, same dosing) was 31.5 gram. The “Weights of Nude Mice” value ([1]; D36, same dosing) was 32.1 gram, the “Weights of Nude Mice” value ([1]; D40, same dosing) was 32.5 gram and the “Weights of Nude Mice” value ([1]; D43, same dosing) was 32.8 gram. For the same compound, the “weights and motilities during the experiment” value ([1]; Day 1 to Day 43) was “do not vary significantly”.
For `CC[C@H](C)[C@H](NC(=O)CN)C(=O)NCC(=O)N[C@@H](C)C(=O)N[C@H](C(=O)N[C@@H](CC(C)C)C(=O)N[C@@H](CCCCN)C(=O)N[C@H](C(=O)N[C@@H](CC(C)C)C(=O)N[C@H](C(=O)N[C@H](C(=O)NCC(=O)N[C@@H](CC(C)C)C(=O)N1CCC[C@H]1C(=O)N[C@@H](C)C(=O)N[C@@H](CC(C)C)C(=O)N[C@H](C(=O)N[C@@H](CO)C(=O)N[C@@H](Cc1c[nH]c2ccccc12)C(=O)N[C@H](C(=O)N[C@@H](CCCCN)C(=O)N[C@@H](CCCNC(=N)N)C(=O)N[C@@H](CCCCN)C(=O)N[C@@H](CCCNC(=N)N)C(=O)N[C@@H](CCC(N)=O)C(=O)N[C@@H](CCC(N)=O)C(N)=O)[C@@H](C)CC)[C@@H](C)CC)[C@@H](C)O)[C@@H](C)O)C(C)C)C(C)C` [melittin], the erythrocytes damaged (erythrocytes) is given as “about 90%”.
